Assay results: patent US20090036422A1 (priority 2007, published 2009)
Counter-ions that a name gives are not always drawn.

Target: T1, human orexin-2 (hOX2) receptor (Homo sapiens, UniProt O43614)
T1 construct: expressed in transfected cells
T1 sequence (O43614 1-444): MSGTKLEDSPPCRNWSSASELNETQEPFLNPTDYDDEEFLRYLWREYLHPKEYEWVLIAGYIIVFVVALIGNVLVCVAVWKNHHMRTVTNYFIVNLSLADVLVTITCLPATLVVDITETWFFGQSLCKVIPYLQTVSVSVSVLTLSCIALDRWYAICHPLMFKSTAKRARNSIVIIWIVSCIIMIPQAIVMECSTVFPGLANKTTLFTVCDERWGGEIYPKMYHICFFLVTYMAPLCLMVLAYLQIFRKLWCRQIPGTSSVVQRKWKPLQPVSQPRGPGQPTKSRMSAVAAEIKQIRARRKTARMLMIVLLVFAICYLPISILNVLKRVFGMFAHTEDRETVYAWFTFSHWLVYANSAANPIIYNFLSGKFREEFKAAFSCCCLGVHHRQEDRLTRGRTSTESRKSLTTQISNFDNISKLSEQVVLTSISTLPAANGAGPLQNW
Experiment: Intracellular Ca2+ mobilization assay (FLIPR), CHO(dHFr-) cells expressing hOX2, orexin-A at EC80 as agonist
Type: cell-based
Conditions: Kb=IC50/(1+[A]/EC50); CHO(dHFr-)-OX2R cells, antagonist applied 25 min before orexin-A EC80
Description: Intracellular Ca^2+ Mobilization Assay
The Chinese Hamster Ovary (dHFr−) mutant cell line stably expressing human orexin-1 (hOX1) or human orexin-2 (hOX2) receptors were maintained in Dulbecco's Modified Eagle Medium (1×) with GlutaMax™ 1, 4500 mg/L D-Glucose and Sodium Pyruvate (Catalog No. 31966-021, Invitrogen, Carlsbad, Calif.), 5% dialyzed fetal calf serum (Catalog No. 26400-044), 100 μg/ml penicillin and 100 μg/ml streptomycin. The cells were seeded at 5×10^4 cells/well in the poly-D-lysine treated, 96-well, black/clear-bottomed plates (Catalog No. BD356640, BD Biosciences, Palo Alto, Calif.). 24 h later, the cells were loaded for 1 h at 37° C. with 4 μM Flou-4 acetoxymethyl ester (Catalog No. F-14202, Molecular Probes, Eugene, Oreg.) in FLIPR buffer (1×HBSS, 20 mM HEPES, 2.5 mM Probenecid). Hanks' Balanced Salt Solution (HBSS) (10×) (catalog No. 14065-049) and HEPES (1M) (catalog No. 15630-056) were purchased from Invitrogen, Carlsbad, Calif. Probenecid (250 mM) (catalog No. P8761) was from Sigma, Buchs, Switzerland. The cells were washed five times with FLIPR buffer to remove excess dye and intracellular calcium mobilization, [Ca^2+]i were measured using a Fluorometric Imaging Plate Reader (FLIPR-96, Molecular Devices, Menlo Park, Calif.) as described previously (Malherbe et al., Mol. Pharmacol., 64, 823-832, 2003). Orexin A (catalog No. 1455, Toris Cookson Ltd, Bristol, UK) was used as agonist. Orexin A (50 mM stock solution in DMSO) was diluted in FLIPR buffer +0.1% BSA. The EC50 and EC80 values of orexin-A were measured daily from standard agonist concentration-response curves in CHO(dHFr−) —OX1R and —OX2R cell lines. All compounds were dissolved in 100% DMSO. Inhibition curves were determined by addition of 11 concentrations (0.0001-10 μM) of inhibitory compounds and using EC80 value of orexin-A as agonist (a concentration which gave 80% of max agonist response, determined daily). The antagonists were applied 25 min (incubation at 37° C.) before the application of the agonist. Responses were measured as peak increase in fluorescence minus basal, normalized to the maximal stimulatory effect induced by EC80 value of orexin-A or orexin-B. Inhibition curves were fitted according to the Hill equation: y=100/(1+(x/IC50)^nH), where nH=slope factor using Excel-fit 4 software (Microsoft).
Kb values were calculated according to the following equation Kb=IC50/(1+[A]/EC50) where A is the concentration of agonist added which is very close to agonist EC80 value, and IC50 and EC50 values were derived from the antagonist inhibition and orexin-A or B agonist curves, respectively.

Row | Kb [µM] | Structure (SMILES)
1 | 0.0642 | Cc1ccc(CCN(C(=O)C(NC(C)(C)CO)c2ccccc2)c2ccc(C)c(C)c2)cc1 (stereo not drawn) [Example 132, N-(3,4-Dimethyl-phenyl)-2-(2-hydroxy-1,1-dimethyl-ethylamino)-2-phenyl-N-(2-p-tolyl-ethyl)-acetamide]
2 | 0.007 | Cc1ccc(CCN(C(=O)C(NCC2OCCO2)c2ccccc2)c2ccc(C)c(C)c2)cc1 (stereo not drawn) [Example 133, N-(3,4-Dimethyl-phenyl)-2-[([1,3]dioxolan-2-ylmethyl)-amino]-2-phenyl-N-(2-p-tolyl-ethyl)-acetamide]
3 | 0.0161 | Cc1ccc(CCN(C(=O)C(NC[C@@H]2CCCO2)c2ccccc2)c2ccc(C)c(C)c2)cc1 (stereo partly drawn) [Example 134, N-(3,4-Dimethyl-phenyl)-2-phenyl-2-{[(S)-1-(tetrahydro-furan-2-yl)methyl]-amino}-N-(2-p-tolyl-ethyl)-acetamide]
4 | 0.0379 | C=COCCNC(C(=O)N(CCc1ccc(C)cc1)c1ccc(C)c(C)c1)c1ccccc1 (stereo not drawn) [Example 135, N-(3,4-Dimethyl-phenyl)-2-phenyl-N-(2-p-tolyl-ethyl)-2-(2-vinyloxy-ethylamino)-acetamide]
5 | 0.0201 | CCOCCNC(C(=O)N(CCc1ccc(C)cc1)c1ccc(C)c(C)c1)c1ccccc1 (stereo not drawn) [Example 136, N-(3,4-Dimethyl-phenyl)-2-(2-ethoxy-ethylamino)-2-phenyl-N-(2-p-tolyl-ethyl)-acetamide]
6 | 0.0364 | NC(C(=O)N(CCc1ccc(C(F)(F)F)cc1)c1ccc2c(c1)CCCC2)c1ccccc1 (stereo not drawn) [Example 137, 2-Amino-2-phenyl-N-(5,6,7,8-tetrahydro-naphthalen-2-yl)-N-[2-(4-trifluoromethyl-phenyl)-ethyl]-acetamide]
7 | 0.0364 | Cc1ccc(N(CCc2ccc(C(F)(F)F)cc2)C(=O)[C@@H](N)c2ccccc2)cc1C [Example 138, (S)-2-Amino-N-(3,4-dimethyl-phenyl)-2-phenyl-N-[2-(4-trifluoromethyl-phenyl)-ethyl]-acetamide]
8 | 0.0127 | CCOc1ccc(N(CCc2ccc(C(F)(F)F)cc2)C(=O)[C@@H](N)c2ccccc2)cc1OCC [Example 140, (S)-2-Amino-N-(3,4-diethoxy-phenyl)-2-phenyl-N-[2-(4-trifluoromethyl-phenyl)-ethyl]-acetamide]
9 | 0.0174 | Cc1ccc(CCN(C(=O)[C@@H](N)c2ccc(F)cc2)c2ccc(C)c(C)c2)cc1 [Example 144, (S)-2-Amino-N-(3,4-dimethyl-phenyl)-2-(4-fluoro-phenyl)-N-(2-p-tolyl-ethyl)-acetamide]
10 | 0.0335 | Cc1ccc(N(CCc2ccc(C(F)(F)F)cc2)C(=O)[C@@H](N)c2ccccc2)cc1 [Example 146, (S)-2-Amino-2-phenyl-N-p-tolyl-N-[2-(4-trifluoromethyl-phenyl)-ethyl]-acetamide]
11 | 0.0217 | N[C@H](C(=O)N(CCc1ccc(C(F)(F)F)cc1)c1ccc(OC(F)F)cc1)c1ccccc1 [Example 148, (S)-2-Amino-N-(4-difluoromethoxy-phenyl)-2-phenyl-N-[2-(4-trifluoromethyl-phenyl)-ethyl]-acetamide]
12 | 0.0682 | N[C@H](C(=O)N(CCc1ccc(C(F)(F)F)cc1)c1ccc2c(c1)CCCC2)c1ccccc1 [Example 150, (S)-2-Amino-2-phenyl-N-(5,6,7,8-tetrahydro-naphthalen-2-yl)-N-[2-(4-trifluoromethyl-phenyl)-ethyl]-acetamide]
13 | 0.0112 | COc1cccc(N(CCc2ccc(C(F)(F)F)cc2)C(=O)[C@@H](N)c2ccccc2)c1 [Example 151, (S)-2-Amino-N-(3-methoxy-phenyl)-2-phenyl-N-[2-(4-trifluoromethyl-phenyl)-ethyl]-acetamide]
14 | 0.051 | Cc1ccc(N(CCc2ccc(C(F)(F)F)cc2)C(=O)[C@@H](N)c2ccc(F)cc2)cc1C [Example 154, (S)-2-Amino-N-(3,4-dimethyl-phenyl)-2-(4-fluoro-phenyl)-N-[2-(4-trifluoromethyl-phenyl)-ethyl]-acetamide]
15 | 0.0322 | CN[C@H](C(=O)N(CCc1ccc(C(F)(F)F)cc1)c1ccc(C)c(C)c1)c1ccccc1OC [Example 157, (S)—N-(3,4-Dimethyl-phenyl)-2-(2-methoxy-phenyl)-2-methylamino-N-[2-(4-trifluoromethyl-phenyl)-ethyl]-acetamide]
16 | 0.0542 | Cc1ccc(N(CCc2ccc(C(F)(F)F)cc2)C(=O)[C@@H](O)c2ccccc2)cc1C [Example 159, (S)—N-(3,4-Dimethyl-phenyl)-2-hydroxy-2-phenyl-N-[2-(4-trifluoromethyl-phenyl)-ethyl]-acetamide]
17 | 0.0291 | COc1cccc(N(CCc2ccc(C(F)(F)F)cc2)C(=O)[C@@H](N)c2ccc(F)cc2)c1 [Example 160]
18 | 0.0908 | Cc1ccc(N(CCc2ccc(C(F)(F)F)cc2)C(=O)[C@@H](O)c2ccc(F)cc2)cc1C [Example 161, (S)—N-(3,4-Dimethyl-phenyl)-2-(4-fluoro-phenyl)-2-hydroxy-N-[2-(4-trifluoromethyl-phenyl)-ethyl]-acetamide]
19 | 0.0151 | COc1cc(N(CCc2ccc(C(F)(F)F)cc2)C(=O)[C@@H](N)c2ccccc2)ccc1C [Example 162, (S)-2-Amino-N-(3-methoxy-4-methyl-phenyl)-2-phenyl-N-[2-(4-trifluoromethyl-phenyl)-ethyl]-acetamide]
20 | 0.0778 | N[C@H](C(=O)N(CCc1ccc(C(F)(F)F)cc1)c1ccc(OC(F)F)c(Cl)c1)c1ccc(F)cc1 [Example 163, (S)-2-Amino-N-(3-chloro-4-difluoromethoxy-phenyl)-2-(4-fluoro-phenyl)-N-[2-(4-trifluoromethyl-phenyl)-ethyl]-acetamide]
21 | 0.0673 | CCOc1ccc(N(CCc2ccc(C(F)(F)F)cc2)C(=O)[C@@H](N)c2ccc(F)cc2)cc1Cl [Example 165, (S)-2-Amino-N-(3-chloro-4-ethoxy-phenyl)-2-(4-fluoro-phenyl)-N-[2-(4-trifluoromethyl-phenyl)-ethyl]-acetamide]
22 | 0.0011 | COc1ccc(N(CCc2ccc(C(F)(F)F)cc2)C(=O)[C@@H](N)c2ccccc2)cc1OC [Example 173, (S)-2-Amino-N-(3,4-dimethoxy-phenyl)-2-phenyl-N-[2-(4-trifluoromethyl-phenyl)-ethyl]-acetamide hydrochloride]
23 | 0.0219 | Cc1ccc(N(CCc2ccc(F)cc2)C(=O)[C@@H](N)c2ccccc2)cc1C [Example 175, (S)-2-Amino-N-(3,4-dimethyl-phenyl)-N-[2-(4-fluoro-phenyl)-ethyl]-2-phenyl-acetamide]
24 | 0.0505 | Cc1ccc(N(CCc2ccc(OC(F)(F)F)cc2)C(=O)[C@@H](N)c2ccccc2)cc1C [Example 176, (S)-2-Amino-N-(3,4-dimethyl-phenyl)-2-phenyl-N-[2-(4-trifluoromethoxy-phenyl)-ethyl]-acetamide]
25 | 0.036 | Cc1ccc(N(CCc2ccccc2F)C(=O)[C@@H](N)c2ccccc2)cc1C [Example 180, (S)-2-Amino-N-(3,4-dimethyl-phenyl)-N-[2-(2-fluoro-phenyl)-ethyl]-2-phenyl-acetamide hydrochloride]
26 | 0.0708 | Cc1cccc(CCN(C(=O)[C@@H](N)c2ccccc2)c2ccc(C)c(C)c2)c1 [Example 181, (S)-2-Amino-N-(3,4-dimethyl-phenyl)-2-phenyl-N-(2-m-tolyl-ethyl)-acetamide hydrochloride]
27 | 0.0283 | Cc1ccc(N(CCc2cccc(F)c2)C(=O)[C@@H](N)c2ccccc2)cc1C [Example 182, (S)-2-Amino-N-(3,4-dimethyl-phenyl)-N-[2-(3-fluoro-phenyl)-ethyl]-2-phenyl-acetamide hydrochloride]
